Experimental data published in publication PMC11345841, “Exploring 2-Sulfonylpyrimidine Warheads as Acrylamide Surrogates for Targeted Covalent Inhibition: A BTK Story” (Journal of Medicinal Chemistry, 2024).
Changes are numbered by the printed parent chain. Where two headings read alike, the source gives them in different places.

Experiments:
[1] = biological target: T1, FLT3(D835Y) (Homo sapiens, UniProt P36888, D835Y); experiment: KINOMEscan ScanTK; format: binding
T1 construct: purchased Eurofins DiscoverX KINOMEscan (scanTK)
T1 sequence (P36888 27-993 D835Y): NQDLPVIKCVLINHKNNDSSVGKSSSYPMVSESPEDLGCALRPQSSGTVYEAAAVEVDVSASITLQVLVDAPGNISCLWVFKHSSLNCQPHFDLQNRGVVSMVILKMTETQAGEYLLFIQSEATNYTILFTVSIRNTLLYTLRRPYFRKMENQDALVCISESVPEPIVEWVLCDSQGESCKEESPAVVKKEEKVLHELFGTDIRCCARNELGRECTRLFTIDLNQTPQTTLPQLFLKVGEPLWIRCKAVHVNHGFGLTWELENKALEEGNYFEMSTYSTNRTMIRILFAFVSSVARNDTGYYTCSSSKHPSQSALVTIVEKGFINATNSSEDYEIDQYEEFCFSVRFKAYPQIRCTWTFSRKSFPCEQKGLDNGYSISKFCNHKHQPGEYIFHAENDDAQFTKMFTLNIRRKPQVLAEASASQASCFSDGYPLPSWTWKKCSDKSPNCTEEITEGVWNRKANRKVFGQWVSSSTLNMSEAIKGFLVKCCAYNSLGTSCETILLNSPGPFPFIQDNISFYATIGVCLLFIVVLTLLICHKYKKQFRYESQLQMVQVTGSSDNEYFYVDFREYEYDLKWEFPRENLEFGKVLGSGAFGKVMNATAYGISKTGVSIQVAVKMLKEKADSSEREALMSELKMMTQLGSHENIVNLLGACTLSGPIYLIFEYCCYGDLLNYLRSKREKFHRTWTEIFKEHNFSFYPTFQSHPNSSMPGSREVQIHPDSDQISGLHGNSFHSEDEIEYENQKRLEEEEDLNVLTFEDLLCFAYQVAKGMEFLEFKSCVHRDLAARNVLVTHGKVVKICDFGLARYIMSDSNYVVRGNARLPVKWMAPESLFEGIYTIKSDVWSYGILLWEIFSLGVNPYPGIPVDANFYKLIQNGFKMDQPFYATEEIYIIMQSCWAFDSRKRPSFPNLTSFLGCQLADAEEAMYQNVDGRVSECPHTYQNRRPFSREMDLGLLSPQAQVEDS

[2] = biological target: T2, HCK (Homo sapiens, UniProt P08631); experiment: KINOMEscan ScanTK; format: binding
T2 construct: purchased Eurofins DiscoverX KINOMEscan (scanTK)

[3] = biological target: T3, FRK (Homo sapiens, UniProt P42685); experiment: KINOMEscan ScanTK; format: binding
T3 construct: purchased Eurofins DiscoverX KINOMEscan (scanTK)

[4] = biological target: T4, EPHA4 (Homo sapiens, UniProt P54764); experiment: KINOMEscan ScanTK; format: binding
T4 construct: purchased Eurofins DiscoverX KINOMEscan (scanTK)

[5] = biological target: T5, EGFR(T790M) (Homo sapiens, UniProt P00533, T790M); experiment: KINOMEscan ScanTK; format: binding
T5 construct: purchased Eurofins DiscoverX KINOMEscan (scanTK)

[6] = biological target: T6, FLT1 (Homo sapiens, UniProt P17948); experiment: KINOMEscan ScanTK; format: binding
T6 construct: purchased Eurofins DiscoverX KINOMEscan (scanTK)

[7] = biological target: T7, EGFR(S752-I759del) (Homo sapiens, UniProt P00533, DEL752-759); experiment: KINOMEscan ScanTK; format: binding
T7 construct: purchased Eurofins DiscoverX KINOMEscan (scanTK)

[8] = biological target: T8, FLT3(R834Q) (Homo sapiens, UniProt P36888, R834Q); experiment: KINOMEscan ScanTK; format: binding
T8 construct: purchased Eurofins DiscoverX KINOMEscan (scanTK)
T8 sequence (P36888 27-993 R834Q): T1 sequence (P36888 27-993 D835Y) with R808Q, Y809D

[9] = tested on: TMD8 cells; experiment: RNA-seq gene expression; conditions: for Expr Log Ratio: 8d versus Ibrutinib

T7 sequence (P00533 with tags, fused parts or gaps DEL752-759 limits assumed): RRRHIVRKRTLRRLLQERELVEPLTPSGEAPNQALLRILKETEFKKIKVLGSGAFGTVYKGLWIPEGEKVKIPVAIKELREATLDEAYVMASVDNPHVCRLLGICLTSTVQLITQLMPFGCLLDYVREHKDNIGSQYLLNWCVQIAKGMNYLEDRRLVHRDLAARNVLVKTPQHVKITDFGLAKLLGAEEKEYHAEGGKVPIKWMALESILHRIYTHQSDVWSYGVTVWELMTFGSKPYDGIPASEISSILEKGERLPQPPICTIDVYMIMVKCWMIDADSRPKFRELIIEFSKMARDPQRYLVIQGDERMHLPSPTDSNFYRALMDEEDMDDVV
T3 sequence (P42685 whole entry): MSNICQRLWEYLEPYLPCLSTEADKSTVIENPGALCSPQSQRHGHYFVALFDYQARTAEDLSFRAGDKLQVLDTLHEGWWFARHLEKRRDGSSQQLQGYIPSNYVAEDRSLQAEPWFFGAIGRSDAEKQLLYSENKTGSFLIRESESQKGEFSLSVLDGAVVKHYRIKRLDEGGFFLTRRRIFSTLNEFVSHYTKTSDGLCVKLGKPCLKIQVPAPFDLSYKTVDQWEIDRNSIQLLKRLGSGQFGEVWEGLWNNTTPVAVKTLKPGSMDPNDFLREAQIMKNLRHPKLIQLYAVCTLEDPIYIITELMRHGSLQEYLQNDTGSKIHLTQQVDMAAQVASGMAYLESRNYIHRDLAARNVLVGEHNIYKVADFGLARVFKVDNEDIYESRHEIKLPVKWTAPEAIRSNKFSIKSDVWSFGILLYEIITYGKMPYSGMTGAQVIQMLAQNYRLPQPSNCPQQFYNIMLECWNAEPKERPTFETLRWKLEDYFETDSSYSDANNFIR
T6 sequence (P17948 27-1338): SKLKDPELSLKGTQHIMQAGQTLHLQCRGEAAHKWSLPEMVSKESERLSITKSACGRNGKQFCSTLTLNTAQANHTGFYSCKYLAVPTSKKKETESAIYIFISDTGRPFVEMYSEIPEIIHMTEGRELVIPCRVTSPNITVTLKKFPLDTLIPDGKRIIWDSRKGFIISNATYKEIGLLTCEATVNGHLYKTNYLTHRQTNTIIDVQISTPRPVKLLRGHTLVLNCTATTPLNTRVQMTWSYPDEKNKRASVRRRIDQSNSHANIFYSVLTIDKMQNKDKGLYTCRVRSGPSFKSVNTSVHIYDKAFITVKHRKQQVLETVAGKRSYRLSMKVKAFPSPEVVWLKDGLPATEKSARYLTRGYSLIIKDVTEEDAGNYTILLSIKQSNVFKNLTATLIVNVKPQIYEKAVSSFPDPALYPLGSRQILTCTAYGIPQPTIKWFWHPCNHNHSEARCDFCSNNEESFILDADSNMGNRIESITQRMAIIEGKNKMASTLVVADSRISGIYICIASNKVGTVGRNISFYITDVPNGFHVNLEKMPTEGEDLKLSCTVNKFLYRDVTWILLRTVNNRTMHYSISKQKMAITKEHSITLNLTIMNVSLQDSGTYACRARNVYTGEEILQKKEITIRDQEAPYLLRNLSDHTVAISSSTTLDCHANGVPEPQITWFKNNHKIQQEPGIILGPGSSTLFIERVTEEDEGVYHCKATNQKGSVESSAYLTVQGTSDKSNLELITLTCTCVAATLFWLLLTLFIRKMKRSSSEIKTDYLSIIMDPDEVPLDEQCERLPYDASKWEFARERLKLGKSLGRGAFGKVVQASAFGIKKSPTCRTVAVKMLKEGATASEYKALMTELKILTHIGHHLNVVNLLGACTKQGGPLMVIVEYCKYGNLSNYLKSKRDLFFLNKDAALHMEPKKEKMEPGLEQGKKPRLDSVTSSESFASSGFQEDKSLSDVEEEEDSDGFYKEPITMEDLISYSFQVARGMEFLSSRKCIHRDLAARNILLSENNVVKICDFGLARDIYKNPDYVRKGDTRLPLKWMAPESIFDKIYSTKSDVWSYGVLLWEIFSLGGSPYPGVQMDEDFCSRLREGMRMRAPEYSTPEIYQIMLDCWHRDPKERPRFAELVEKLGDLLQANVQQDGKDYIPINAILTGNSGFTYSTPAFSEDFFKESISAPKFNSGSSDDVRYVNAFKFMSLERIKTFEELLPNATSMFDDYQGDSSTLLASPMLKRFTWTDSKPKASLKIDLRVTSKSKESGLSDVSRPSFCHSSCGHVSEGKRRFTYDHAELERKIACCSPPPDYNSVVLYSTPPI
T5 sequence (P00533 25-1210 T790M): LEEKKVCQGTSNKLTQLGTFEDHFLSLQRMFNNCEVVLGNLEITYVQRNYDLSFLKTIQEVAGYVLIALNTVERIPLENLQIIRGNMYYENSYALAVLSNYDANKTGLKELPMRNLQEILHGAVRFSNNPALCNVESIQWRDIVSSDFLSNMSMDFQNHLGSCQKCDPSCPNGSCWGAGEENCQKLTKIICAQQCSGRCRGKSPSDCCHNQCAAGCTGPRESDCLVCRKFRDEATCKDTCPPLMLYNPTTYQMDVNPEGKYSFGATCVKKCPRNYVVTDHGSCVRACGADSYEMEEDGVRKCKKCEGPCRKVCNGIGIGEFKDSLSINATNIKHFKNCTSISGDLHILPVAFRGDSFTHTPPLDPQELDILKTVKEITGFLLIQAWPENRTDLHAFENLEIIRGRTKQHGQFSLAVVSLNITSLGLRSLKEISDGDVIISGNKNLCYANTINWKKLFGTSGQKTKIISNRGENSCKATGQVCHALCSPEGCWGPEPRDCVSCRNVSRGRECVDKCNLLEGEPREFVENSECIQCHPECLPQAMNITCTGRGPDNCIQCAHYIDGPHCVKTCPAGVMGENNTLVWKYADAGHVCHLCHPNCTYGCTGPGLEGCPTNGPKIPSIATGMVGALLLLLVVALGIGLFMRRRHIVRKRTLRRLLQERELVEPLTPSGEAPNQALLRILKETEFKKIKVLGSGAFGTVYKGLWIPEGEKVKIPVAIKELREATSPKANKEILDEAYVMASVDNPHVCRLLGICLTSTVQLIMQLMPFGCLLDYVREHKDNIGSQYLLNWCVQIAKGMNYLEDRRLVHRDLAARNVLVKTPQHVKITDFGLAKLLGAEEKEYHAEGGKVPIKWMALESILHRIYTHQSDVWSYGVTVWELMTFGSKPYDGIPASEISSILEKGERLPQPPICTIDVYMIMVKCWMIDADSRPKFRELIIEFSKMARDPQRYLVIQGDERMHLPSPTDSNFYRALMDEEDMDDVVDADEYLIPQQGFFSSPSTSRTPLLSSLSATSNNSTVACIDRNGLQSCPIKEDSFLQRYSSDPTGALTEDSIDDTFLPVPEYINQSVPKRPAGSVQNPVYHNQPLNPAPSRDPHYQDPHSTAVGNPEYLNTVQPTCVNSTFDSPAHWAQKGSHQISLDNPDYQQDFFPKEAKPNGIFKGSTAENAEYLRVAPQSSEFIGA
T2 sequence (P08631 whole entry): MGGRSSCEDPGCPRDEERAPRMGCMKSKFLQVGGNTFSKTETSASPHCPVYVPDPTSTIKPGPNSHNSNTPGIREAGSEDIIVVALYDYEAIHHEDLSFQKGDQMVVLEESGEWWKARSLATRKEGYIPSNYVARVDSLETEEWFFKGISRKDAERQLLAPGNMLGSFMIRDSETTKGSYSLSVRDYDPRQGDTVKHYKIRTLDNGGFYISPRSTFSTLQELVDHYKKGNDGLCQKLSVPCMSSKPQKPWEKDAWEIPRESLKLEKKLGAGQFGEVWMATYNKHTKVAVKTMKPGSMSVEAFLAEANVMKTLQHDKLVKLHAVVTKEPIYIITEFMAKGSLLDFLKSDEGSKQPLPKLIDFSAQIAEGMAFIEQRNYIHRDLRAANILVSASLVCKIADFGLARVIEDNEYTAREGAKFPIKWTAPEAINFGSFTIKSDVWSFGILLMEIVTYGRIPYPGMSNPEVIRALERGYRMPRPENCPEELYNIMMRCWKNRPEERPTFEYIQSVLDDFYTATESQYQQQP
T4 sequence (P54764 20-986): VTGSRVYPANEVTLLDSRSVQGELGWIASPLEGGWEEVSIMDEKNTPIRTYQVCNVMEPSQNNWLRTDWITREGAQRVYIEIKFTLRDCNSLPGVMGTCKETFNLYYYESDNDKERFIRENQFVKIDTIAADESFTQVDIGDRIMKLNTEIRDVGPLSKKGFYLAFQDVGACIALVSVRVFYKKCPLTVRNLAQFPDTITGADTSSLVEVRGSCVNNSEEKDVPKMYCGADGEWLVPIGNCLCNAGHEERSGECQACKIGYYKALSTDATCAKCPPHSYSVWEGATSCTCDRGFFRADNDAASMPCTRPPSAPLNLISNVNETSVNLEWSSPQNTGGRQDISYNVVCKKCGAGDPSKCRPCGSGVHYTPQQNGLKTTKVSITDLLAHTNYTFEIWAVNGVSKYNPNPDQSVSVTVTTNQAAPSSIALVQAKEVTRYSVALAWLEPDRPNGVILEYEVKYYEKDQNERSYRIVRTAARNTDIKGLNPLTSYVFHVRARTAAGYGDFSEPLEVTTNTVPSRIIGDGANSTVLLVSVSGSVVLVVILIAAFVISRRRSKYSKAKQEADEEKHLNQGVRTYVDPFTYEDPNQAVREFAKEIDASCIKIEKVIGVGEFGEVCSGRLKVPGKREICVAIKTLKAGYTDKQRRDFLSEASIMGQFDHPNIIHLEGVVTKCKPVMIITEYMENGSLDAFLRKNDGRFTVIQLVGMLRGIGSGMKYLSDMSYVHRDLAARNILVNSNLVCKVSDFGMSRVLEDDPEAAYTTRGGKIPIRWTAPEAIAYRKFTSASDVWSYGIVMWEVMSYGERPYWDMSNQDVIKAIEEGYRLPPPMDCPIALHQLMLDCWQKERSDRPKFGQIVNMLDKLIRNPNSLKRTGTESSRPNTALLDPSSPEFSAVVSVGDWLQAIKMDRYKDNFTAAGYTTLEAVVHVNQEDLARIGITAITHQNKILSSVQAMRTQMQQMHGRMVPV

CNC(=O)c1cnc(S(C)(=O)=O)nc1N1CCCC(n2nc(-c3ccc(Oc4ccccc4)cc3)c3c(N)ncnc32)C1 (centres unmarked) [Compound 8d, 4-(3-(4-Amino-3-(4-phenoxyphenyl)-1H-pyrazolo[3,4-d]pyrimidin-1-yl)piperidin-1-yl)-N-methyl-2-(methylsulfonyl)pyrimidine-5-carboxamide]
difference in %Control versus compound Ib at 1 µM ([1]; @1000nM): 10% | remaining binding at 1 µM ([1]; @1000nM, read-out: %Control): 59% | remaining binding at 1 µM ([1]; read-out: %Control @1000nM): 59% | difference in %Control from compound Ib at 1 µM ([2]; @1000nM): 6.8% | remaining binding at 1 µM ([2]; @1000nM, read-out: %Control): 12% | remaining binding at 1 µM ([2]; read-out: %Control @1000nM): 12% | difference in %Control versus compound Ib at 1 µM ([3]; @1000nM): 33.7% | remaining binding at 1 µM ([3]; @1000nM, read-out: %Control): 43% | remaining binding at 1 µM ([3]; read-out: %Control @1000nM): 43% | %Control difference from compound Ib at 1 µM ([4]; @1000nM): 9% | remaining binding at 1 µM ([4]; @1000nM, read-out: %Control): 100% | remaining binding at 1 µM ([4]; read-out: %Control @1000nM): 100% | difference in % of control versus compound Ib at 1 µM ([5]; @1000nM): 18.6% | remaining binding at 1 µM ([5]; @1000nM, read-out: %Control): 19% | remaining binding at 1 µM ([5]; read-out: %Control @1000nM): 19% | difference in %Control from compound Ib at 1 µM ([6]; @1000nM): 28% | remaining binding at 1 µM ([6]; @1000nM, read-out: %Control): 100% | remaining binding at 1 µM ([6]; read-out: %Control @1000nM): 100% | difference in %Control versus compound Ib at 1 µM ([7]; @1000nM): 67% | remaining binding at 1 µM ([7]; @1000nM, read-out: %Control): 69% | remaining binding at 1 µM ([7]; read-out: %Control @1000nM): 69% | difference in %Control versus compound Ib at 1 µM ([8]; @1000nM): 29% | remaining binding at 1 µM ([8]; @1000nM, read-out: %Control): 90% | remaining binding at 1 µM ([8]; read-out: %Control @1000nM): 90% | Expr Log Ratio ([9]; ACTN4): 0.022 | Expr Log Ratio ([9]; ACVR1C): -0.029 | Expr Log Ratio ([9]; APC): 0.064 | Expr Log Ratio ([9]; APOC1): -0.164 | Expr Log Ratio ([9]; ARHGAP31): 0.01 | Expr Log Ratio ([9]; ARNT2): 0.044 | Expr Log Ratio ([9]; AURKA): -0.004 | Expr Log Ratio ([9]; BLOC1S5): -0.004 | Expr Log Ratio ([9]; BMPR2): 0.081 | Expr Log Ratio ([9]; BRCA1): 0.248 | Expr Log Ratio ([9]; BRD7): 0.035 | Expr Log Ratio ([9]; BTRC): 0.281 | Expr Log Ratio ([9]; CD80): -0.429 | Expr Log Ratio ([9]; CDKN1A): -0.127 | Expr Log Ratio ([9]; COL1A1): -0.248 | Expr Log Ratio ([9]; CREBZF): -0.251 | Expr Log Ratio ([9]; CREM): -0.036 | Expr Log Ratio ([9]; CTR9): 0.099 | Expr Log Ratio ([9]; CYB561A3): -0.04 | Expr Log Ratio ([9]; DEF6): 0.017 | Expr Log Ratio ([9]; DNM1L): 0.002 | Expr Log Ratio ([9]; DTNBP1): 0.278 | Expr Log Ratio ([9]; DTX1): -0.178 | Expr Log Ratio ([9]; ECM1): 0.54 | Expr Log Ratio ([9]; EHD1): -0.044 | Expr Log Ratio ([9]; EIF2AK4): 0.093 | Expr Log Ratio ([9]; EIF2B5): -0.104 | Expr Log Ratio ([9]; ELAVL1): -0.071 | Expr Log Ratio ([9]; ESR1): -0.045 | Expr Log Ratio ([9]; ETS1): 0.064 | Expr Log Ratio ([9]; FECH): 0.061 | Expr Log Ratio ([9]; FGF2): 0.272 | Expr Log Ratio ([9]; FGFR4): -0.062 | Expr Log Ratio ([9]; FTO): -0.134 | Expr Log Ratio ([9]; GLIS2): -0.228 | Expr Log Ratio ([9]; GNB1): 0.033 | Expr Log Ratio ([9]; GNB2): -0.086 | Expr Log Ratio ([9]; GPI): -0.003 | Expr Log Ratio ([9]; GPNMB): 0.582 | Expr Log Ratio ([9]; GSTP1): -0.086 | Expr Log Ratio ([9]; H1-2): -0.09 | Expr Log Ratio ([9]; HDAC1): -0.011 | Expr Log Ratio ([9]; HDAC8): -0.281 | Expr Log Ratio ([9]; HNRNPAB): -0.136 | Expr Log Ratio ([9]; HSF2): -0.15 | Expr Log Ratio ([9]; HTATIP2): 0.03 | Expr Log Ratio ([9]; IL1A): 0.332 | Expr Log Ratio ([9]; ING1): -0.221 | Expr Log Ratio ([9]; KDM6B): -0.137 | Expr Log Ratio ([9]; LOX): -0.113 | Expr Log Ratio ([9]; LOXL2): 0.149 | Expr Log Ratio ([9]; MAPK8): -0.028 | Expr Log Ratio ([9]; MAPK9): 0.146 | Expr Log Ratio ([9]; MAPKAP1): -0.077 | Expr Log Ratio ([9]; MDM4): -0.082 | Expr Log Ratio ([9]; MED1): -0.016 | Expr Log Ratio ([9]; MESP1): -0.242 | Expr Log Ratio ([9]; MESP2): -0.023 | Expr Log Ratio ([9]; MFN2): -0.162 | Expr Log Ratio ([9]; MGAT3): -0.275 | Expr Log Ratio ([9]; MGAT5): 0.29 | Expr Log Ratio ([9]; MPZ): -0.137 | Expr Log Ratio ([9]; MTA3): -0.001 | Expr Log Ratio ([9]; NCL): -0.053 | Expr Log Ratio ([9]; NCOA2): 0.045 | Expr Log Ratio ([9]; NDRG2): 0.057 | Expr Log Ratio ([9]; NFIA): 0.254 | Expr Log Ratio ([9]; NFYB): 0.006 | Expr Log Ratio ([9]; NORAD): -0.057 | Expr Log Ratio ([9]; NR1H3): 0.155 | Expr Log Ratio ([9]; OIP5-AS1): 0.071 | Expr Log Ratio ([9]; PADI2): 0.089 | Expr Log Ratio ([9]; PCGF2): 0.108 | Expr Log Ratio ([9]; PDCD4): 0.188 | Expr Log Ratio ([9]; PIAS3): 0.008 | Expr Log Ratio ([9]; POR): -0.13 | Expr Log Ratio ([9]; PPIA): 0.046 | Expr Log Ratio ([9]; PTAFR): 0.465 | Expr Log Ratio ([9]; PTP4A3): -0.295 | Expr Log Ratio ([9]; PTPN2): 0.048 | Expr Log Ratio ([9]; RALA): -0.18 | Expr Log Ratio ([9]; REL): -0.144 | Expr Log Ratio ([9]; RELA): -0.006 | Expr Log Ratio ([9]; RNASEL): 0.378 | Expr Log Ratio ([9]; RPA1): 0.039 | Expr Log Ratio ([9]; RPS6KA5): -0.015 | Expr Log Ratio ([9]; SCX): 0.154 | Expr Log Ratio ([9]; SDCBP): 0.02 | Expr Log Ratio ([9]; SDHB): 0.024 | Expr Log Ratio ([9]; SP3): -0.093 | Expr Log Ratio ([9]; SP100): 0.189 | Expr Log Ratio ([9]; SPINT1): -0.109 | Expr Log Ratio ([9]; ST6GAL1): -0.01 | Expr Log Ratio ([9]; STS): 0.181 | Expr Log Ratio ([9]; TGFBR3): 0.172 | Expr Log Ratio ([9]; TGS1): 0.171 | expression of AHR target gene CYP1A1 ([9]; TMD8, 1 μM, 8 h): significantly downregulated | number of genes unchanged vs DMSO ([9]; TMD8, 1 μM, 8 h): 14389 genes | number of genes unchanged vs ibrutinib ([9]; TMD8, 1 μM, 8 h): 14881 genes | number of genes reduced vs DMSO ([9]; TMD8, 1 μM, 8 h, FDR < 0.01, log2FC < -0.5): 274 genes | number of genes increased vs DMSO ([9]; TMD8, 1 μM, 8 h, FDR < 0.01, log2FC > 0.5): 384 genes | number of genes increased vs ibrutinib ([9]; TMD8, 1 μM, 8 h, p-value <0.01): 105 genes | number of genes reduced vs ibrutinib ([9]; TMD8, 1 μM, 8 h, p-value <0.01): 61 genes | Expr Log Ratio ([9]; TNF): -0.16 | Expr Log Ratio ([9]; TNFRSF11A): 0.052 | Expr Log Ratio ([9]; TP53): -0.035 | Expr Log Ratio ([9]; YWHAZ): 0.016
